Reference: US10253002B2, “Compounds and methods of treating infections” (Neoculi Pty Ltd., priority 2013, dated 2019)
Values joined by “and” are separate entries in the source; they are usually repeats but may differ in a detail not shown here. Equal values may be shown once.

Legend:
Experiment in all cases: Broth microdilution MIC, Example 7 (NCL812 and analogues)
[1] = system: MRSA; type: cell-based, Staphylococcus aureus
Experimental: (§1) Minimum inhibitory concentrations (μg/ml) were determined using the broth microdilution method recommended by the Clinical and Laboratory Standards Institute (CLSI). MIC breakpoints were determined by visual assessment and then confirmed using an ELISA plate reader, measuring absorbance levels at 600 nm. Bacterial growth (turbidity) in the wells with antimicrobial was compared with the amount of growth (turbidity) in the growth-control well (containing no antimicrobial). All isolates were tested in duplicate, if there was a difference of greater than one two-fold dilution in the results, the test was repeated a third time. The purity of the isolates was closely monitored during testing by subculturing the prepared bacterial inoculum onto SBA (sheep blood agar). […] The MIC50, MIC20 and MIC range (minimum and maximum) were calculated for each of the bacterial groups.
(§2) MICs were determined against two MRSA strains, two VRE strains and one strain each of E. coli and Pseudomonas aeruginosa.

[2] = system: VRE; type: cell-based, Enterococcus spp.
Experimental: as §1, §2

[3] = system: Pseudomonas aeruginosa; type: cell-based; conditions: 24 hours
[4] = system: Escherichia coli; type: cell-based; conditions: 24 hours
[5] = MRSA 1, 24 hours, duplicate lines per compound
[6] = MRSA 2, 24 hours, duplicate lines per compound
[7] = VRE 1, 24 hours, duplicate lines per compound
[8] = VRE 2, 24 hours, duplicate lines per compound
[9] = P. aeruginosa, duplicate lines per compound
[10] = E. coli, duplicate lines per compound
[11] = isolate MRSA 1, 24 hours, 1st and 2nd replicate rows
[12] = isolate MRSA 2, 24 hours, 1st and 2nd replicate rows
[13] = isolate VRE 1, 24 hours, 1st and 2nd replicate rows
[14] = isolate VRE 2, 24 hours, 1st and 2nd replicate rows

SMILES	MIC (μg/ml) at 24 hours, MRSA 1 [1, 5] [µg/mL]	MIC (μg/ml) at 24 hours, MRSA 2 [1, 6] [µg/mL]	MIC (μg/ml) at 24 hours, VRE 1 [2, 7]	MIC (μg/ml) at 24 hours, VRE 2 [2, 8] [µg/mL]	MIC (μg/ml) at 24 hours, P. aeruginosa [3, 9] [µg/mL]	MIC (μg/ml) at 24 hours, E. coli [4, 10] [µg/mL]	also measured
COc1ccc(C=CC=NNC(=N)NN=CC=Cc2ccc(OC)cc2)cc1.Cl [NCL 150]	128	128	>128 µg/mL	>128	>128	>128	–
Cl.N=C(NN=Cc1cccc(C(F)(F)F)c1)NN=Cc1cccc(C(F)(F)F)c1 [NCL037]	–	–	–	–	–	–	MIC (μg/ml) at 24 hours, MRSA 1 [1, 11]: >128 µg/mL; MIC (μg/ml) at 24 hours, MRSA 2 [1, 12]: >128 µg/mL; MIC (μg/ml) at 24 hours, VRE 1 [2, 13]: >126 µg/mL and >128 µg/mL; MIC (μg/ml) at 24 hours, VRE 2 [2, 14]: >128 µg/mL; MIC (μg/ml) at 24 hours, P. aeruginosa ([3]; 1st and 2nd replicate rows): >128 µg/mL; MIC (μg/ml) at 24 hours, E. coli ([4]; 1st and 2nd replicate rows): >128 µg/mL
COc1cc(/C=N/NC(=N)N/N=C/c2ccc(O)c(OC)c2)ccc1O.Cl [NCL 117]	64	128	64 µg/mL	64	>128	>128	–
FC(F)(F)c1ccc(-c2nnc(Nc3ccc(Cl)cc3)[nH]2)cc1 [NCL091]	>128	>128	>128 µg/mL	>128	>128	>128	–
Cl.N=C(NNCc1ccccc1)NNCc1ccccc1 [NCL 142]	>128	>128	>128 µg/mL	>128	>128	>128	–
CC(=O)Nc1ccc(C=NNC(=N)NN=Cc2ccc(NC(C)=O)cc2)cc1.Cl [NCL 119]	>128	>128	>128 µg/mL	>128	>128	>128	–
NC(=O)N/N=C/c1ccccc1F [NCL048]	–	–	–	–	–	–	MIC (μg/ml) at 24 hours, MRSA 1 [1, 11]: >128 µg/mL; MIC (μg/ml) at 24 hours, MRSA 2 [1, 12]: >128 µg/mL; MIC (μg/ml) at 24 hours, VRE 1 [2, 13]: >128 µg/mL; MIC (μg/ml) at 24 hours, VRE 2 [2, 14]: >128 µg/mL; MIC (μg/ml) at 24 hours, P. aeruginosa ([3]; 1st and 2nd replicate rows): >128 µg/mL; MIC (μg/ml) at 24 hours, E. coli ([4]; 1st and 2nd replicate rows): >128 µg/mL
C#Cc1cccc(C=NNC(=N)NN=Cc2cccc(C#C)c2)c1.Cl [NCL 126]	>128	>128	4 µg/mL and 8 µg/mL	>128	>128	>128	–
Cl.N=C(N)N/N=C/c1ccccc1C(F)(F)F [NCL042]	–	–	–	–	–	–	MIC (μg/ml) at 24 hours, MRSA 1 [1, 11]: >128 µg/mL; MIC (μg/ml) at 24 hours, MRSA 2 [1, 12]: >128 µg/mL; MIC (μg/ml) at 24 hours, VRE 1 [2, 13]: >128 µg/mL; MIC (μg/ml) at 24 hours, VRE 2 [2, 14]: >128 µg/mL; MIC (μg/ml) at 24 hours, P. aeruginosa ([3]; 1st and 2nd replicate rows): >128 µg/mL; MIC (μg/ml) at 24 hours, E. coli ([4]; 1st and 2nd replicate rows): >128 µg/mL
Cl.N=C(N/N=C/c1cc(F)ccc1F)N/N=C/c1cc(F)ccc1F [NCL 118]	>128	>128	>128 µg/mL	>128	>128	>128	–
Cl.N=C(N/N=C/c1cccc([N+](=O)[O-])c1)N/N=C/c1cccc([N+](=O)[O-])c1 [NCL109]	>128	>128	>128 µg/mL	>128	>128	>128	–
Cl.N=C(N/N=C/c1ccccc1)N/N=C/c1ccccc1 [NCL100]	>128	>128	>128 µg/mL	>128	>128	>128	–
CCCCCCNC(=O)N(N=Cc1ccc(Cl)cc1)C(N)=NN=Cc1ccc(Cl)cc1 [NCL228]	–	–	–	–	–	–	MIC (μg/ml) at 24 hours, MRSA 1 ([1]; MRSA 1, 24 hours): >128 µg/mL; MIC (μg/ml) at 24 hours, MRSA 2 ([1]; MRSA 2, 24 hours): >128 µg/mL; MIC (μg/ml) at 24 hours, VRE 1 ([2]; VRE 1, 24 hours): >128 µg/mL; MIC (μg/ml) at 24 hours, VRE 2 ([2]; VRE 2, 24 hours): >128 µg/mL; MIC (μg/ml) at 24 hours, P. aeruginosa ([3]; P. aeruginosa): >128 µg/mL; MIC (μg/ml) at 24 hours, E. coli ([4]; E. coli): >128 µg/mL
